Measured values published in patent US10710978B2, “STK4 inhibitors for treatment of hematologic malignancies” (Dana-Farber Cancer Institute, Inc., priority 2015, dated 2020).

These compounds were tested against STK4 (MST1) (Homo sapiens (Human), UniProt Q13043) (assay: Z-lyte biochemical IC50 assay (Invitrogen)). Conditions: ATP concentration matched the Km.
Chain of STK4 (MST1) (Q13043 whole entry): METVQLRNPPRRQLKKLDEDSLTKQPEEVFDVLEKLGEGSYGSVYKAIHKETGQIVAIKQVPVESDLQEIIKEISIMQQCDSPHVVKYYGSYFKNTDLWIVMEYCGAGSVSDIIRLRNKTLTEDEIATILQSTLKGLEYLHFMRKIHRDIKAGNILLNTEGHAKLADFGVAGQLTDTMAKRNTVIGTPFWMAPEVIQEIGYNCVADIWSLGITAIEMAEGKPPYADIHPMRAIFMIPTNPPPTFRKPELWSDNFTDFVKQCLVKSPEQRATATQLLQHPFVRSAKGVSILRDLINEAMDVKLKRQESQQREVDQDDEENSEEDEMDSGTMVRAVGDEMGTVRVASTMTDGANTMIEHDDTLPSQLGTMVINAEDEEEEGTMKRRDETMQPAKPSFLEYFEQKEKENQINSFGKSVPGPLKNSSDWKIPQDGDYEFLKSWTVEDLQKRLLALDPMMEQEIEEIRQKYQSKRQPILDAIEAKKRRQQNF
Method: STK4 (MST1), STK3 (MST2); STK24 (MST3) and MST4 Assays
Biochemical IC50s were measured at Invitrogen using Z-lyte technology. Briefly, for STK4, the 2×STK4 (MST1)/Ser/Thr 07 mixture was prepared in 50 mM HEPES pH 7.5, 0.01% BRIJ35, 10 mM MgCl2, 1 mM EGTA. The final 10 μL Kinase Reaction consisted of 6.25-160 ng STK4 (MST1) and 2 μM Ser/Thr 07 in 50 mM HEPES pH 7.5, 0.01% BRIJ-35, 10 mM MgCl2, 1 mM EGTA. After the 1 hour Kinase Reaction incubation, 5 μL of a 1:100000 dilution of Development Reagent A was added. Compounds were screened in a 10 point titration with 3-fold serial dilutions starting at a concentration of 10 μM. The biochemical IC50s against other STK family members were measured similarly. The ATP concentration used matched the Km for each kinase.
Cc1cc(N2CCOCC2)cc2[nH]c(-c3c(NC[C@@H](O)c4cccc(Cl)c4)cc[nH]c3=O)nc12 [BMS536924, reference compound] was tested, and the IC50 was 40 to 200 nM. With Nc1ncc(-c2cc(F)ccc2[N+](=O)[O-])cc1-c1ccc2c(c1)CCNC2=O [Compound I-7, 6-(2-amino-5-(5-fluoro-2-nitrophenyl)pyridin-3-yl)-3,4-dihydroisoquinolin-1(2H)-one] the IC50 was > 900 nM. For COc1ccncc1-c1cnc(N)c(-c2ccc3c(c2)CCNC3=O)c1 [Compound I-8, 6-(6-amino-4′-methoxy-[3,3′-bipyridin]-5-yl)-3,4-dihydroisoquinolin-1(2H)-one], the IC50 was > 900 nM. N#Cc1cc(-c2cc(-c3cc([N+](=O)[O-])ccc3F)cnc2N)ccc1O [Compound I-11, 5-(2-amino-5-(2-fluoro-5-nitrophenyl)pyridin-3-yl)-2-hydroxybenzonitrile] was tested, and the IC50 was > 900 nM. Cn1cnc2c(-c3cnc(N)c(-c4ccc5c(c4)CCNC5=O)c3)cccc21 [Compound I-14, 6-(2-amino-5-(1-methyl-1H-benzo[d]imidazol-4-yl)pyridin-3-yl)-3,4-dihydroisoquinolin-1(2H)-one] gave an IC50 of 40 to 200 nM. Nc1ncc(-c2cc(F)cc([N+](=O)[O-])c2)cc1-c1ccc2c(c1)CCNC2=O [Compound I-17, 6-(2-amino-5-(3-fluoro-5-nitrophenyl)pyridin-3-yl)-3,4-dihydroisoquinolin-1(2H)-one] gave an IC50 of 40 to 200 nM. Nc1ncc(-c2cc([N+](=O)[O-])cc(F)c2F)cc1-c1ccc2c(c1)CCNC2=O [Compound I-18, 6-(2-amino-5-(2,3-difluoro-5-nitrophenyl)pyridin-3-yl)-3,4-dihydroisoquinolin-1(2H)-one] showed an IC50 of 40 to 200 nM. NC(=O)c1ccc(-c2cc(-c3cc([N+](=O)[O-])ccc3F)cnc2N)cc1Cl [Compound I-30, 4-(2-amino-5-(2-fluoro-5-nitrophenyl)pyridin-3-yl)-2-chlorobenzamide] was tested, and the IC50 was 200 to 900 nM. Compound NC(=O)c1ccc(-c2cc(-c3cc([N+](=O)[O-])ccc3F)cnc2N)cc1 [Compound I-31, 4-(2-amino-5-(2-fluoro-5-nitrophenyl)pyridin-3-yl)benzamide] has an IC50 of 200 to 900 nM. Compound Nc1ncc(-c2cc([N+](=O)[O-])cnc2F)cc1-c1ccc2c(c1)CCNC2=O [Compound I-39, 6-(6-amino-2′-fluoro-5′-nitro-[3,3′-bipyridin]-5-yl)-3,4-dihydroisoquinolin-1(2H)-one] has an IC50 of 200 to 900 nM. In the case of Nc1ncc(-c2ccc3ncsc3c2)cc1-c1ccc2c(c1)CCNC2=O [Compound I-44, 6-(2-amino-5-(benzo[d]thiazol-6-yl)pyridin-3-yl)-3,4-dihydroisoquinolin-1(2H)-one], the IC50 is reported as 40 to 200 nM. C#Cc1cc(F)c(-c2cnc(N)c(-c3ccc4c(c3)CCNC4=O)c2)cc1[N+](=O)[O-] [Compound I-45, 6-(2-amino-5-(4-ethynyl-2-fluoro-5-nitrophenyl)pyridin-3-yl)-3,4-dihydroisoquinolin-1(2H)-one] was tested, and the IC50 was 40 to 200 nM. With CCOc1cc(S(=O)(=O)N(C)C2CC2)ccc1-c1cnc(N)c(-c2ccc3c(c2)CCNC3=O)c1 [Compound I-47, 4-(6-amino-5-(1-oxo-1,2,3,4-tetrahydroisoquinolin-6-yl)pyridin-3-yl)-N-cyclopropyl-3-ethoxy-N-methylbenzenesulfonamide] the IC50 was < 40 nM. CC(C)Oc1cc(S(=O)(=O)N(C)C2CC2)ccc1-c1cnc(N)c(-c2ccc3c(c2)CCNC3=O)c1 [Compound I-48, 4-(6-amino-5-(1-oxo-1,2,3,4-tetrahydroisoquinolin-6-yl)pyridin-3-yl)-N-cyclopropyl-3-isopropoxy-N-methylbenzenesulfonamide] was tested, and the IC50 was < 40 nM. With COc1cc(S(=O)(=O)NC2CC2)ccc1-c1cnc(N)c(-c2ccc3c(c2)CCNC3=O)c1 [Compound I-49, 4-(6-amino-5-(1-oxo-1,2,3,4-tetrahydroisoquinolin-6-yl)pyridin-3-yl)-N-cyclopropyl-3-methoxybenzenesulfonamide] the IC50 was < 40 nM. With COc1cc(S(=O)(=O)N(C)C2CCCCC2)ccc1-c1cnc(N)c(-c2ccc3c(c2)CCNC3=O)c1 [Compound I-52, 4-(6-amino-5-(1-oxo-1,2,3,4-tetrahydroisoquinolin-6-yl)pyridin-3-yl)-N-cyclohexyl-3-methoxy-N-methylbenzenesulfonamide] the IC50 was 40 to 200 nM. Compound COc1cc(S(=O)(=O)N(C)C2CCOCC2)ccc1-c1cnc(N)c(-c2ccc3c(c2)CCNC3=O)c1 [Compound I-53, 4-(6-amino-5-(1-oxo-1,2,3,4-tetrahydroisoquinolin-6-yl)pyridin-3-yl)-3-methoxy-N-methyl-N-(tetrahydro-2H-pyran-4-yl)benzenesulfonamide] has an IC50 of 40 to 200 nM. Work on Nc1ncc(-c2ccc([N+](=O)[O-])cc2F)cc1-c1ccc2c(c1)CCNC2=O [Compound I-54, 6-(2-amino-5-(2-fluoro-4-nitrophenyl)pyridin-3-yl)-3,4-dihydroisoquinolin-1(2H)-one] yielded an IC50 of 40 to 200 nM. With Nc1ncc(-c2cccc3scnc23)cc1-c1ccc2c(c1)CCNC2=O [Compound I-55, 6-(2-amino-5-(benzo[d]thiazol-4-yl)pyridin-3-yl)-3,4-dihydroisoquinolin-1(2H)-one] the IC50 was 40 to 200 nM. Compound Nc1ncc(-c2cncc3ncsc23)cc1-c1ccc2c(c1)CCNC2=O [Compound I-56, 6-(2-amino-5-(thiazolo[4,5-c]pyridin-7-yl)pyridin-3-yl)-3,4-dihydroisoquinolin-1(2H)-one] has an IC50 of 200 to 900 nM. In the case of Nc1ncc(-c2ccc(F)c3ncsc23)cc1-c1ccc2c(c1)CCNC2=O [Compound I-57, 6-(2-amino-5-(4-fluorobenzo[d]thiazol-7-yl)pyridin-3-yl)-3,4-dihydroisoquinolin-1(2H)-one], the IC50 is reported as < 40 nM. Nc1ncc(-c2cccc(NS(=O)(=O)C3CC3)c2)cc1-c1ccc2c(c1)CCNC2=O [Compound I-58, N-(3-(6-amino-5-(1-oxo-1,2,3,4-tetrahydroisoquinolin-6-yl)pyridin-3-yl)phenyl) cyclopropanesulfonamide] was tested, and the IC50 was < 40 nM. With Nc1ncc(-c2cccc(-c3nccs3)c2)cc1-c1ccc2c(c1)CCNC2=O [Compound I-59, 6-(2-amino-5-(3-(thiazol-2-yl)phenyl)pyridin-3-yl)-3,4-dihydroisoquinolin-1(2H)-one] the IC50 was < 40 nM. COc1cc(-c2nccs2)ccc1-c1cnc(N)c(-c2ccc3c(c2)CCNC3=O)c1 [Compound I-60, 6-(2-amino-5-(2-methoxy-4-(thiazol-2-yl)phenyl)pyridin-3-yl)-3,4-dihydroisoquinolin-1(2H)-one] showed an IC50 of 40 to 200 nM. COc1cc(C#N)ccc1-c1cnc(N)c(-c2ccc3c(c2)CCNC3=O)c1 [Compound I-61, 4-(6-amino-5-(1-oxo-1,2,3,4-tetrahydroisoquinolin-6-yl)pyridin-3-yl)-3-methoxybenzonitrile] was tested, and the IC50 was < 40 nM. For CN1CCc2cc(-c3cc(-c4ccc(S(=O)(=O)N(C)C5CC5)cc4F)cnc3N)ccc2C1=O [Compound I-62, 4-(6-amino-5-(2-methyl-1-oxo-1,2,3,4-tetrahydroisoquinolin-6-yl)pyridin-3-yl)-N-cyclopropyl-3-fluoro-N-methylbenzenesulfonamide], the IC50 was < 40 nM. In the case of CN(C1CC1)S(=O)(=O)c1ccc(-c2cnc(N)c(-c3ccc4c(=O)[nH]cnc4c3)c2)c(F)c1 [Compound I-63, 4-(6-amino-5-(4-oxo-3,4-dihydroquinazolin-7-yl)pyridin-3-yl)-N-cyclopropyl-3-fluoro-N-methylbenzenesulfonamide], the IC50 is reported as < 40 nM. With Nc1ncc(-c2cccc3ncsc23)cc1-c1ccc2c(=O)[nH]cnc2c1 [Compound I-64, 7-(2-amino-5-(benzo[d]thiazol-7-yl)pyridin-3-yl)quinazolin-4(3H)-one] the IC50 was 40 to 200 nM. For Nc1ncc(-c2ccc(NS(=O)(=O)C3CC3)cc2OCc2ccccc2)cc1-c1ccc2c(c1)CCNC2=O [Compound I-66, N-(4-(6-amino-5-(1-oxo-1,2,3,4-tetrahydroisoquinolin-6-yl)pyridin-3-yl)-3-(benzyloxy)phenyl) cyclopropanesulfonamide], the IC50 was 40 to 200 nM. With CC(C)Oc1cc(NS(=O)(=O)C2CC2)ccc1-c1cnc(N)c(-c2ccc3c(c2)CCNC3=O)c1 [Compound I-67, N-(4-(6-amino-5-(1-oxo-1,2,3,4-tetrahydroisoquinolin-6-yl)pyridin-3-yl)-3-isopropoxyphenyl) cyclopropanesulfonamide] the IC50 was < 40 nM. In the case of CC(C)Oc1cc(S(=O)(=O)N(C)C2CC2)ccc1-c1cnc(N)c(-c2ccc3c(c2)CNC3=O)c1 [Compound I-68, 4-(6-amino-5-(1-oxoisoindolin-5-yl)pyridin-3-yl)-N-cyclopropyl-3-isopropoxy-N-methylbenzenesulfonamide], the IC50 is reported as < 40 nM. With Nc1ncc(-c2ccc(NS(=O)(=O)C3CC3)cc2OC2CCCC2)cc1-c1ccc2c(c1)CCNC2=O [Compound I-69, N-(4-(6-amino-5-(1-oxo-1,2,3,4-tetrahydroisoquinolin-6-yl)pyridin-3-yl)-3-(cyclopentyloxy)phenyl) cyclopropanesulfonamide] the IC50 was < 40 nM. In the case of Nc1ncc(-c2ccc(F)c3ncsc23)cc1-c1ccc2c(c1)CNC2=O [Compound I-70, 5-(2-amino-5-(4-fluorobenzo[d]thiazol-7-yl)pyridin-3-yI)isoindolin-1-one], the IC50 is reported as 40 to 200 nM. Compound Nc1ncc(-c2cccc(S(N)(=O)=O)c2)cc1-c1ccc2c(c1)CCNC2=O [Compound I-71, 3-(6-amino-5-(1-oxo-1,2,3,4-tetrahydroisoquinolin-6-yl)pyridin-3-yl)benzenesulfonamide] has an IC50 of 200 to 900 nM. With Nc1ncc(-c2cc3scnc3cc2F)cc1-c1ccc2c(c1)CCNC2=O [Compound I-73, 6-(2-amino-5-(5-fluorobenzo[d]thiazol-6-yl)pyridin-3-yl)-3,4-dihydroisoquinolin-1(2H)-one] the IC50 was 40 to 200 nM.
